The text below walks through data of patent US20050096254A1, “Peptide deformylase activated prodrugs” (priority 2002, published 2005).

The nature of series [1]: Stability in Human Plasma. Type of series: in vitro ADME. The settings on record: for half-life: read-out: Stability Human Plasma t1/2.
Series [2] is described as follows: Stability in Mueller Hinton Broth. The settings on record: for half-life: read-out: Stability Mueller Hinton Broth t1/2 (converted). It is filed as physicochemical.
The nature of series [3]: Stability in Mouse Plasma. The settings on record: for half-life: read-out: Stability Mouse Plasma t1/2. It is filed as in vitro ADME.
Series [4] in a line: Stability in PBS, pH 7.4. It is filed as physicochemical. The settings on record: for Stability PBS, pH 7.4 % left after 6 hrs: pH 7.4, after 6 hrs; for half-life: pH 7.4, read-out: Stability PBS, pH 7.4 t1/2 (converted).
The subject of series [5] is S. aureus. Put plainly: MIC susceptibility testing (modified NCCLS). It is filed as cell-based. The settings on record: Staphylococcus aureus. As to the method: (§1) The NCCLS (National Committee for Clinical Laboratory Standards), method to determine MIC's of antimicrobial compounds is modified for high-throughput screening. All stocks of tested compounds are prepared in either water or in DMSO depending on solubility. At the highest concentration, DMSO content should not exceed 0.5%. Briefly, twenty 2-fold serial dilutions of test compounds from the highest concentration is made in a 384-well microtiter plate. Each well is inoculated with testing bacteria in broth to a final concentration of approximately 1-1.5×10^6 cells/ml. Bacterial growth is determined by the increase of optical density at 600 nm using a microplate reader (Tecan SpectraFluor Plus).

Series [6] has as its target PDF (Escherichia coli, UniProt P0A6K3). To be noted: Wei et al. (2000); read-out: Ki (competitive PDF inhibitor); cited from earlier work.
Series [7] has as its system P. aeruginosa. Put plainly: MIC susceptibility testing (modified NCCLS). It is filed as cell-based. To be noted: Pseudomonas aeruginosa, ATCC27853; Table 6, P. aeruginosa ATCC 27853; read-out: MIC. As to the method:
The NCCLS (National Committee for Clinical Laboratory Standards), method to determine MIC's of antimicrobial compounds is modified for high-throughput screening. All stocks of tested compounds are prepared in either water or in DMSO depending on solubility. At the highest concentration, DMSO content should not exceed 0.5%. Briefly, twenty 2-fold serial dilutions of test compounds from the highest concentration is made in a 384-well microtiter plate. […] Bacterial growth is determined by the increase of optical density at 600 nm using a microplate reader (Tecan SpectraFluor Plus).

The test system of series [8] is E. coli. Put plainly: MIC susceptibility testing (modified NCCLS). Type of series: cell-based. To be noted: Escherichia coli, ATCC25922; Table 6, E. coli ATCC 25922; read-out: MIC. On the procedure:
as §1

Series [9] concerns E. faecalis. Put plainly: MIC susceptibility testing (modified NCCLS). The settings on record: Enterococcus faecalis, ATCC29212; Table 6, E. faecalis ATCC 29212; read-out: MIC. Type of series: cell-based. On the procedure:
as §1

SMILES strings stand for the structures. Converted amounts (≈) assume the structure as drawn. Where two headings read alike, the source gives them in different places. A value given as a limit tells only on which side of the number the result lay.

Sequence of PDF (P0A6K3 whole entry): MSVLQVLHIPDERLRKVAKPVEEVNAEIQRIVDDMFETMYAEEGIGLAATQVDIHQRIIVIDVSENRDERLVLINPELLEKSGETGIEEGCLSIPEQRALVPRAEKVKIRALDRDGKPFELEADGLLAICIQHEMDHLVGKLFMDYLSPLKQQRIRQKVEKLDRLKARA

Turning to `CSCCC(NC=O)C(=O)NC(CC(C)C)C(=O)Oc1c(-c2ccccc2)cc(CO)cc1-c1ccccc1` (centres unmarked) [NB3145, 2-(2-formylamino-4-methylsulfanyl-butyrylamino)-4-methyl-pentanoic Acid 5′-hydroxymethyl-[1,1′;3′,1″]terphenyl-2′-yl Ester], in [1], the “Stability Human Plasma % left after 120 min” value is 94% and the half-life was greater than 2 h. In series [2], the “Stability Mueller Hinton Broth % left after 6 hrs” value stood at 99% and the half-life is greater than 12 h. For the same compound, in [3], the “Stability Mouse Plasma % left after 10 min” value (from here on “Stability Mouse Plasma % left”) is listed as 94% and the half-life is greater than 0.333 h. For the same compound, in series [4], the “Stability PBS, pH 7.4 % left after 6 hrs” value is 99% and the half-life was greater than 12 h.
With `COc1cc(CO)cc(Br)c1OC(=O)C(CC(C)C)NC(=O)C(CCSC)NC=O` (centres unmarked) [NB3162, 2-(2-formylamino-4-methylsulfanyl-butyrylamino)-4-methyl-pentanoic Acid 2-bromo-4-hydroxymethyl-6-methoxy-phenyl Ester], the half-life was 0.177 h in [1], greater than 12 h in [2], 0.148 h in [3] and greater than 12 h in [4]. Besides, in series [2], the “Stability Mueller Hinton Broth % left after 6 hrs” value worked out at 91%. In [4], the “Stability PBS, pH 7.4 % left after 6 hrs” value came out at 98%.
As to `CSCCC(NC=O)C(=O)NC(CC(C)C)C(=O)Oc1c(C)cc(CO)cc1C` (centres unmarked) [NB3165, 2-(2-formylamino-4-methylsulfanyl-butyrylamino)-4-methyl-pentanoic Acid 4-hydroxymethyl-2,6-dimethyl-phenyl Ester], in [1], the “Stability Human Plasma % left after 120 min” value came out at 94% and the half-life is greater than 2 h. In [2], the “Stability Mueller Hinton Broth % left after 6 hrs” value was determined as 95% and the half-life is greater than 12 h. For the same compound, in series [3], the “Stability Mouse Plasma % left” value came out at 94% and the half-life was greater than 0.333 h. Besides, in series [4], the “Stability PBS, pH 7.4 % left after 6 hrs” value was determined as 85% and the half-life is greater than 12 h.
Consider `Oc1cc(Cl)ccc1Oc1ccc(Cl)cc1Cl` [Triclosan, triclosan, reference compound], for which the MIC in series [5] (ATCC 11632 / MSSA) came out at 1.95 ng/mL (≈ 0.00675 µM); in series [5] (ATCC 13301 / MSSA) it was 0.488 ng/mL (≈ 0.00169 µM); in series [5] (ATCC 14154 / MSSA), 1.95 ng/mL (≈ 0.00675 µM); in series [5] (ATCC 33591 / MSSA), 7.81 ng/mL (≈ 0.027 µM); in [5] (ATCC 33592 / MSSA), 3.91 ng/mL (≈ 0.0135 µM); in series [5] (ATCC 33593 / MSSA), 0.977 ng/mL (≈ 0.00337 µM). Also, the MIC in series [5] (ATCC 43300 / MSSA) was 1.95 ng/mL (≈ 0.00675 µM); in series [5] (ATCC 700260 / MSSA), 0.244 ng/mL (≈ 0.000843 µM); in [5] (ATCC 700698 / MSSA), 3.91 ng/mL (≈ 0.0135 µM); in series [5] (ATCC 700699 / MSSA), no less than 4000 ng/mL; in series [5] (ATCC 700787 / MSSA), 1.95 ng/mL (≈ 0.00675 µM); in series [5] (ATCC 700788 / MSSA), 31.2 ng/mL (≈ 0.108 µM). The compound further displayed an MIC in [5] (ATCC 700789 / MSSA) of 15.6 ng/mL (≈ 0.054 µM).
Consider `CCCCC(CS)C(=O)NC(CCCNC(=N)N)C(=O)Nc1ccc2ccccc2c1` (centres unmarked) [optimal inhibitor], for which the inhibition constant Ki in series [6] is 0.015 µM.
Take `CSCCC(NC=O)C(=O)NC(CC(C)C)C(=O)Oc1c(Br)cc(CO)cc1-c1ccco1` (centres unmarked) [NB3177, 2-(2-Formylamino-4-methylsulfanyl-butyrylamino)-4-methyl-pentanoic Acid 2-bromo-6furan-2-yl-4-hydroxymethyl-phenyl Ester]: the half-life in [1] was 0.533 h; in series [2] it was greater than 12 h; in [3], greater than 0.333 h; in series [4], greater than 12 h. The “Stability Mueller Hinton Broth % left after 6 hrs” value in series [2] stood at 89%. For the same compound, in [3], the “Stability Mouse Plasma % left” value amounted to 88%. The “Stability PBS, pH 7.4 % left after 6 hrs” value in series [4] is 95%.
`CCn1cc(C(=O)O)c(=O)c2cc(F)c(N3CCNCC3)cc21` [Norfloxacin, norfloxacin, reference compound]: the minimum inhibitory concentration (MIC) in series [7] amounted to 500 ng/mL (≈ 1.57 µM); in [8], 15.6 ng/mL (≈ 0.0489 µM); in series [5] (ATCC29213, Table 6, S. aureus (MS) ATCC 29213, read-out: MIC), 500 ng/mL (≈ 1.57 µM); in series [5] (ATCC33591, Table 6, S. aureus (MR) ATCC 33591, read-out: MIC), 1000 ng/mL (≈ 3.13 µM); in [9] it was 1000 ng/mL (≈ 3.13 µM).
Turning to `CSCCC(NC=O)C(=O)NC(CC(C)C)C(=O)Oc1c(Br)cc(CO)cc1Br` (centres unmarked) [NB3144, 2-(2-formylamino-4-methylsulfanyl-butyrylamino)-4-methyl-pentanoic Acid 2,6-dibromo-hydroxymethyl-phenyl Ester], the half-life was 2.9 h in series [2] and 3.3 h in series [4].

What is called MIC is the smallest concentration in the dilution series that meets the test's criterion for growth inhibition. The Ki is the equilibrium dissociation constant of an inhibitor or competing ligand from its target.
